The subject of one data set is MCC26 cells (VN-MCC). The data set is classed as cell-based, human. Here is the method: (§1) A non-targeting control (Silencer Select Negative Control No. 2 siRNA) and a positive control (AllStars Cell Death Control siRNA) were used as controls. Lipofectamine RNAiMax (Thermo Fisher Scientific, Grand Island, NY) was obtained as the transfection reagent. […] Three siRNAs per gene were arrayed in 384 well plates, one siRNA per well. […] Cell viability was measured by CellTiter-Glo assay following the manufacturer's instructions (G7572; Promega, Madison, WI, USA) 96 h after siRNA transfection. Assay plates were measured using BMG Pherastar plate reader Three different siRNAs (sequences: [NT], and [NT] targeting INCENP as well as negative non-targeting siRNA control were purchased from Thermo Fisher Scientific (Grand Island, NY).

The next data set has as its system MKL-2 cells (VP-MCC). It counts as cell-based, human. Here is the method:
as §1

“AGUCCUUUAUUAAGCGCAAtt (AGUCCUUUAUUAAGCGCAATT; chemistry not given here)”: the Percent viability in the data set with MCC26 cells (VN-MCC) is reported as 103.7%; in the data set on MKL-2 cells (VP-MCC), 80.2%.
Turning to “CAAAGGAAACCAACAAUAAtt (CAAAGGAAACCAACAAUAATT; chemistry not given here)”, the Percent viability was found to be 87.6% in the data set with MCC26 cells (VN-MCC) and 80.7% with MKL-2 cells (VP-MCC).
As to “GCAGGUUCCUUAUCUGUCAtt (GCAGGUUCCUUAUCUGUCATT; chemistry not given here)”, the Percent viability in the data set on MCC26 cells (VN-MCC) is reported as 85.0%; in the data set on MKL-2 cells (VP-MCC) it was 56.1%.
Turning to “GCUUGUACCUCAUAUCAGAtt (GCUUGUACCUCAUAUCAGATT; chemistry not given here)”, the Percent viability in the data set with MCC26 cells (VN-MCC) amounted to 90.4%; in the data set on MKL-2 cells (VP-MCC), 48.4%.
In the case of “UAUUGUUGGUUUCCUUUGC (chemistry not given here)”, the Percent viability in the data set on MCC26 cells (VN-MCC) was 96.2%; in the data set on MKL-2 cells (VP-MCC), 92.8%.
As for “UGAAUGUAGAGAUGCGGUG (chemistry not given here)”, the results for the Percent viability with MCC26 cells (VN-MCC) and in the data set with MKL-2 cells (VP-MCC) were 98.4% and 74.1%, respectively.

These data come from PMC11822212, “High-throughput screening identifies Aurora kinase B as a critical therapeutic target for Merkel cell carcinoma” (Nature Communications, 2025).
